From PubChem BioAssay (NCI) come the findings set out here.

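Results reflect a 48-hour exposure of cells in 96-well plates to compound at five concentrations. GI50 marks 50% less growth. TGI marks complete inhibition of growth.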

Holding throughout (assay): DTP human tumour cell line panel, 48 h
In assay [1] the test system is 786-0 renal.
Assay [2] has as its system HOP-92 NSCLC.
The subject of assay [3] is MALME-3M melanoma.
Assay [4] deals with OVCAR-4 ovarian.
Assay [5] deals with OVCAR-5 ovarian.
Assay [6] has as its system RPMI-8226 leukemia.
The subject of assay [7] is SN12C renal.
Assay [8] deals with SNB-75 CNS.
Assay [9] deals with TK-10 renal.
Assay [10] has as its system UACC-62 melanoma.

Usually GI50 stands for the concentration at which growth is held to half of that of the control. Usually TGI stands for the concentration at which net growth stops. Read a high TGI as less potent growth arrest. On to `Cc1nc2cnc3cc(F)c(-c4ccc(Oc5ncccn5)cc4Cl)cc3c2n1[C@H]1CCN(C(=O)CO)C[C@@H]1F`, for which the GI50 in assay [1] was 8.47 µM; in assay [2], 0.403 µM; in assay [4] it was 20.8 µM; in [5], 0.279 µM; in [6] it was 1.35 µM; in [7], 1.2 µM. Further, the results for the GI50 in [8], in assay [9] and in [10] were 12 µM, 1.76 µM and 0.0134 µM, respectively. The TGI in assay [1] was over 100 µM; in assay [2], 3.5 µM; in assay [3], 0.0316 µM; in assay [4], over 83.9 µM; in assay [5] it was over 40.1 µM; in [6] it was 13.9 µM. In addition, the TGI was determined as 36.8 µM in assay [7], 36.2 µM in assay [8], 36 µM in [9] and 0.0875 µM in assay [10].

With `C[C@]12CC[C@@H]3c4ccc(O)cc4CC[C@H]3[C@@H]1CC[C@@H]2NS(=O)(=O)c1cccc(C(F)(F)F)c1`, the GI50 was 3.06 µM in [1]; 1.94 µM in assay [2]; 2.83 µM in [3]; 2.95 µM in [4]; 4.54 µM in assay [5]; 3.26 µM in [6]. Moreover, the GI50 was 2.19 µM in assay [7], 2.98 µM in [8], 4.05 µM in assay [9] and 2.66 µM in [10]. Also, the TGI in [1] turned out to be 8.95 µM; in [2], 7.81 µM; in assay [3], 8.65 µM; in [4], 12.4 µM; in assay [5], 17.4 µM; in assay [6], 14.2 µM. Moreover, the TGI in assay [7] amounted to 5.97 µM; in [8] it was 15.5 µM; in assay [9], 13.3 µM; in [10], 10.7 µM.

For the compound `Nc1ccn(CCO)c(=O)n1`, the TGI in [1], in [2], in assay [3], in assay [4], in [5] and in [6] was over 100 µM in each case. Also, the TGI in assay [7], in [8], in assay [9] and in assay [10] was over 100 µM each time.

Regarding `CCN1CCN(CC(=O)Nc2nc3ccc(NCc4ccc(Cl)cc4)cc3s2)CC1`, the GI50 was 6.38 µM in assay [1]; 1.12 µM in assay [2]; 1.67 µM in [3]; 5.25 µM in assay [4]; 1.6 µM in assay [6]; 2.94 µM in [7]. Also, the results for the GI50 in assay [8], in assay [9] and in [10] were 1.88 µM, 2.84 µM and 2.08 µM, respectively. The TGI in assay [1] was found to be 20.1 µM; in assay [2], 2.77 µM; in [3] it was 3.2 µM; in assay [4], 90.6 µM; in [6] it was 4.04 µM; in assay [7], 11.9 µM. In addition, the figures for the TGI in assay [8], in [9] and in [10] were 4.5 µM, 7.45 µM and 4.03 µM, respectively.

As to `CCOC(=O)C1=C(NNC(=O)Cc2ccccc2)CSC1=Nc1ccccc1`, the TGI in assay [1], in assay [2], in assay [3], in assay [4], in assay [5] and in assay [7] was over 100 µM throughout. The TGI in assay [8], in assay [9] and in assay [10] was over 100 µM in each case.

Take `NC(=O)c1oc([N+](=O)[O-])c(-c2ccccc2)c1-c1ccccc1`: the concentration for total growth inhibition (TGI) in [1] came to 89.7 µM; in [2] it was 42 µM; in assay [3] it was 16 µM; in [4], 28.5 µM; in assay [5] it was 63.2 µM; in assay [7], 5.09 µM. Moreover, the TGI is over 100 µM in assay [8], 72.8 µM in assay [9] and 21.3 µM in [10].

`Cn1ccc2c(c1=O)C(=O)c1nccc3c1c-2nc1ccccc13`: the GI50 in assay [1] is 1.64 µM; in assay [2], 1.81 µM; in assay [3], 2.2 µM; in [4], 1.31 µM; in assay [5], 1.92 µM; in [6], 2.58 µM. Moreover, the GI50 in assay [7] was 1.56 µM; in assay [8], 1.17 µM; in assay [10] it was 1.54 µM. Further, the total growth inhibition concentration (TGI) in assay [1] turned out to be 3.18 µM; in assay [2], 20.4 µM; in assay [3], 4.09 µM; in assay [4] it was 2.6 µM; in assay [5], 3.46 µM; in assay [6] it was 8.68 µM. Further, the figures for the TGI in assay [7], in assay [8] and in assay [10] were 3.03 µM, 2.43 µM and 2.93 µM, respectively.

As for `Cc1cc(C)c2c(c1)Nc1ccccc1P2c1ccccc1` (configuration not stated), the concentration for total growth inhibition (TGI) in [1] was over 100 µM; in assay [2], 58.9 µM; in [3], 71.8 µM; in assay [4] it was over 100 µM; in assay [6], 26.7 µM; in assay [7] it was over 100 µM. Also, the figures for the TGI in [8], in assay [9] and in [10] were 78.5 µM, over 100 µM and over 100 µM, respectively.

As for `COc1cc2c3c(n(CCCNCC(OC)OC)c(=O)c2cc1OC)-c1cc2c(cc1C3=O)OCO2`, the concentration for 50% growth inhibition (GI50) in [1] is 0.274 µM; in assay [2], 1.45 µM; in assay [3] it was 21 µM; in assay [4] it was 20.1 µM; in [5], 16.9 µM; in assay [6], under 0.01 µM. Also, the GI50 in assay [8] was 17 µM; in [9] it was 11.9 µM; in assay [10], 1.63 µM. The TGI in [1] worked out at 8.75 µM; in assay [2], 19.1 µM; in assay [3], 47.6 µM; in assay [4], 42.7 µM; in [5], 37.8 µM; in assay [6], 0.197 µM. In addition, the figures for the TGI in [8], in assay [9] and in assay [10] were over 59.1 µM, 47.8 µM and 22.6 µM, respectively.

`Cc1ccc(NC(=O)c2cc3ccccc3c(N=Nc3ccccc3O)c2O)c(C)c1`: the TGI in assay [1] was 11.8 µM; in assay [2], 12.9 µM; in assay [3], 5.87 µM; in assay [4], 11.6 µM; in [5], 19.5 µM; in assay [6], 11.1 µM. The TGI is 2.5 µM in assay [8] and 24.5 µM in [9].

With `CN(C)CCNC(=O)c1ccc(C(=O)NCCN(C)C)c2nc3ccccc3cc12`, the TGI in [1] is 13.8 µM; in [2] it was 7.99 µM; in assay [3], 2.97 µM; in assay [4], 3.52 µM; in assay [5], 3.78 µM; in assay [7] it was 8.96 µM. For the same compound, the figures for the TGI in assay [8], in assay [9] and in [10] were 3.46 µM, 5.08 µM and 2.38 µM, respectively.
